# US20190092792A1, “VINORELBINE MONOTARTRATE AND ITS PHARMACEUTICAL USE” (priority 2016, published 2019)
# Like-named read-outs stand apart in the source and are kept apart here.
# Tests used:
# [1] = Comparable stressing stability study at 60° C. (total degradation impurities by HPLC); type: physicochemical; settings: for Total degradation impurities: 60° C.
# Method: (§1) The degradation impurities are determined after a specific amount of time of incubation by means of HPLC.
# (§2) The term “degradation impurities”, as used herein, is to be understood such a sample of the relevant product is subjected to HPLC analysis and calculation of the content of impurities in Vinorelbine is performed according to the method described in European Pharmacopoeia 7.0.
# (§3) HPLC analysis and calculation of the content of impurities in Vinorelbine were performed according to the method described in European Pharmacopoeia 7.0.
# [2] = xenon lamp 300-800 nm
# Method: The term “photostability”, as used herein, is to be understood such that a sample of the product to be analyzed in a quantity of about 14 mg is placed in a 10 ml light glass volumetric flask and is exposed in a photo chamber to a xenon lamp (wave length 300-800 nm; fluence rate 250-765 W/m2). The amount of the known photo-degradation product 3,6-epoxy vinorelbine is determined after a specific amount of time of exposure by means of HPLC (High-performance liquid chromatography). The described photostability test procedure corresponds to the photostability determining method described in European Pharmacopoeia 7.0 using exposure time 2 hours.
# Furthermore, a comparative photo-degradation analysis of crystalline vinorelbine monotartrate hydrate, according to the present invention and vinorelbine bitartrate was performed.
# The samples (about 14 mg each) were placed in 10 ml light glass volumetric flasks and exposed in a photo chamber to a xenon lamp (wave length 300-800 nm; fluence rate 250-765 W/m^2). The amount of the known photo-degradation product 3,6-epoxy vinorelbine was determined at various time points by means of HPLC.
# [3] = Thermostability of vinorelbine monotartrate solid forms at 5° C., 25° C. and 40° C. (degradation impurities by HPLC); type: physicochemical; settings: for Degradation products (%) 3,6-epoxy vinorelbine / Degradation products (%) Total / Degradation products (%) vinorelbine N-oxide: amorphous form, 40° C.
# Method: as §1, §2
# The term “degradation”, as used herein, is to be understood to relate to the total amount of identified (e.g. 3,6-epoxy vinorelbine, 4-O-deacetylvinorelbine and vinorelbine N-oxide) and unidentified degradation products that form in a sample after a particular incubation period.
# as §3
# Three further representative batches of crystalline vinorelbine monotartrate acetone solvate being produced according to Example 1 were analyzed for stability (i.e. batches no. 011213, no. 021213, and no. 010414). The samples were exposed to temperatures of 5° C. and 25° C. for three and six months, respectively. Batch no. 010414 was also exposed to a temperature of 40° C. (at 60%±2% relative humidity) for 15 days, 1 month, and two months, respectively.
# Crystalline vinorelbine monotartrate hydrate being produced according to Example 5 were analyzed for stability. The samples were exposed to temperatures of 25° C. and 40° C. for three and six months, respectively.
# In order to evaluate the thermostability and photostability of the compound the sample was exposed to a temperature of 40° C. for 2 weeks analyzed by HPLC.
Molecule,Total degradation impurities ([1]; 1 week),"Photodegradation product (3,6-epoxy vinorelbine), % ([2]; exposure 0 min) [%]","Total impurities (excluding photodegradation product), % ([2]; exposure 0 min) [%]","Photodegradation product (3,6-epoxy vinorelbine), % ([2]; exposure 15 min) [%]","Total impurities (excluding photodegradation product), % ([2]; exposure 15 min) [%]","Photodegradation product (3,6-epoxy vinorelbine), % ([2]; exposure 30 min) [%]","Total impurities (excluding photodegradation product), % ([2]; exposure 30 min) [%]","Photodegradation product (3,6-epoxy vinorelbine), % ([2]; exposure 60 min) [%]","Total impurities (excluding photodegradation product), % ([2]; exposure 60 min) [%]","Photodegradation product (3,6-epoxy vinorelbine), % ([2]; exposure 120 min) [%]","Total impurities (excluding photodegradation product), % ([2]; exposure 120 min) [%]",other results
"CCC1=C[C@@H]2CN(C1)Cc1c([nH]c3ccccc13)[C@@](C(=O)OC)(c1cc3c(cc1OC)N(C)[C@H]1[C@@](O)(C(=O)OC)[C@H](OC(C)=O)[C@]4(CC)C=CCN5CC[C@]31[C@@H]54)C2.O=C(O)C(O)C(O)C(=O)O.O=C(O)C(O)C(O)C(=O)O [vinorelbine bitartrate, reference compound]",9.8%,0.05,0.10,0.16,0.10,0.24,0.16,0.35,0.20,0.72,0.27,–
vinorelbine monotartrate hydrate,–,0.03,0.10,0.08,0.10,0.14,0.10,0.28,0.10,0.44,0.17,"overall accumulation of degradation impurities ([3]; after 6 months at 25° C.): ≤ 0.02%; overall accumulation of degradation impurities ([3]; after 6 months at 40° C.): ≤ 0.15%; thermostability, degradation ([1]; one week storage at 60° C.): less than 0.10%"
vinorelbine monotartrate acetone solvate,LT 0.05%,–,–,–,–,–,–,–,–,–,–,degradation (in words) ([3]; six months storage at 5° C.+3° C.): almost no degradation; degradation (in words) ([3]; six months storage at 25° C.±2° C.): almost no degradation; degradation (in words) ([3]; two months storage at 40° C.): only minimal degradation; Total degradation impurities ([1]; 3 weeks): 0.08%; Total degradation impurities ([1]; 8 weeks): 0.24%; chemical degradation (in words) ([1]; one week storage at 60° C.): didn't show any chemical degradation
vinorelbine monotartrate [amorphous vinorelbine monotartrate],–,–,–,–,–,–,–,–,–,–,–,"Degradation products (%) 3,6-epoxy vinorelbine ([3]; 15 days): 0.13%; Degradation products (%) Total ([3]; 15 days): 1.08%; Degradation products (%) vinorelbine N-oxide ([3]; 15 days): 0.33%; Degradation products (%) 3,6-epoxy vinorelbine ([3]; initial): LT 0.05%; Degradation products (%) Total ([3]; initial): 0.13%; Degradation products (%) vinorelbine N-oxide ([3]; initial): LT 0.05%; stability (in words) ([3]; exposure to elevated temperature and humidity for an extended period): unstable; degradation (in words) ([3]; incubation for two weeks at 40° C.): significant degradation"
